According to ChEMBL document CHEMBL1201862, “PubChem BioAssay data set” (2004):
Structures can show the parent of a compound that is named as a salt. Active and inactive are the calls of the source.

Legend:
[1] = viability loss in A549 lung cells – cell-based, 24 h, CellTiter-Glo luminescence, cherry-picks, cytotoxicity control, dose response (AID 1053115); format: functional; settings: A549, 24 h
[2] = lung carcinoma cell viability loss – CellTiter-Glo luminescence, dry powder, set 17, dose response (AID 1117284); format: functional, cell-based; settings: A549
[3] = target: Glutathione-S-transferase (Schistosoma japonicum, UniProt Q26513); assay: GST-antibody interaction or FRET quenching – biochemical, TR-FRET, artefact control for Vif-APOBEC3G degradation inhibitor project, dose response (AID 1117362); format: functional
[4] = target: T1, Zinc finger protein mex-5 (Caenorhabditis elegans, UniProt Q9XUB2); assay: potency of MEX-5 RNA-binding blockers – biochemical, C. elegans, fluorescence polarization, dose response (AID 1960)
T1 sequence (Q9XUB2 whole entry): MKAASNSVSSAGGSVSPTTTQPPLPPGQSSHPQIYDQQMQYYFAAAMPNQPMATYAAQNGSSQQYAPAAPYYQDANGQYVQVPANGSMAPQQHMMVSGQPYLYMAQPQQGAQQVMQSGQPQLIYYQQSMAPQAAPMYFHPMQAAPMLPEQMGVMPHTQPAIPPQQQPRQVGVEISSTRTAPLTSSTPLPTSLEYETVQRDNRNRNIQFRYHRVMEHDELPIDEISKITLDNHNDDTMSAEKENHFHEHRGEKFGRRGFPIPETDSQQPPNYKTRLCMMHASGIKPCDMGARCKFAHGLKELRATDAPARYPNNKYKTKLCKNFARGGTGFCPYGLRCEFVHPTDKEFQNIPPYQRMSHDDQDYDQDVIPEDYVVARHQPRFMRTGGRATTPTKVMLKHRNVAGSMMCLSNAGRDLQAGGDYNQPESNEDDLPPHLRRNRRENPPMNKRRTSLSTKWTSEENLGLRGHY

[5] = target: T2, RNA-binding protein pos-1 (Caenorhabditis elegans, UniProt G5EF15); assay: disruptors of C. elegans POS-1 RNA interaction – biochemical, fluorescence polarization, dose response (AID 1964);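 note: purified POS-1 fused to maltose binding protein made in E. coli; potency of compounds blocking POS-1 binding to fluorescent RNA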
T2 sequence (G5EF15 whole entry): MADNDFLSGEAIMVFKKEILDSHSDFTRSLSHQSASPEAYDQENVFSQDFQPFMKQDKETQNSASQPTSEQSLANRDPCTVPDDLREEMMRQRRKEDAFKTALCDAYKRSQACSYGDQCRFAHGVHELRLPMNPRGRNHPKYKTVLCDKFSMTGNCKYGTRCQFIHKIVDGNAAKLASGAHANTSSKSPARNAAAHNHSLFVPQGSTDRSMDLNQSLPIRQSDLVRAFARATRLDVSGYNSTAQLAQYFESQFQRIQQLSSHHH

[6] = target: T3, Apoptotic protease-activating factor 1 (Homo sapiens, UniProt O14727); format: functional
T3 sequence (O14727 whole entry): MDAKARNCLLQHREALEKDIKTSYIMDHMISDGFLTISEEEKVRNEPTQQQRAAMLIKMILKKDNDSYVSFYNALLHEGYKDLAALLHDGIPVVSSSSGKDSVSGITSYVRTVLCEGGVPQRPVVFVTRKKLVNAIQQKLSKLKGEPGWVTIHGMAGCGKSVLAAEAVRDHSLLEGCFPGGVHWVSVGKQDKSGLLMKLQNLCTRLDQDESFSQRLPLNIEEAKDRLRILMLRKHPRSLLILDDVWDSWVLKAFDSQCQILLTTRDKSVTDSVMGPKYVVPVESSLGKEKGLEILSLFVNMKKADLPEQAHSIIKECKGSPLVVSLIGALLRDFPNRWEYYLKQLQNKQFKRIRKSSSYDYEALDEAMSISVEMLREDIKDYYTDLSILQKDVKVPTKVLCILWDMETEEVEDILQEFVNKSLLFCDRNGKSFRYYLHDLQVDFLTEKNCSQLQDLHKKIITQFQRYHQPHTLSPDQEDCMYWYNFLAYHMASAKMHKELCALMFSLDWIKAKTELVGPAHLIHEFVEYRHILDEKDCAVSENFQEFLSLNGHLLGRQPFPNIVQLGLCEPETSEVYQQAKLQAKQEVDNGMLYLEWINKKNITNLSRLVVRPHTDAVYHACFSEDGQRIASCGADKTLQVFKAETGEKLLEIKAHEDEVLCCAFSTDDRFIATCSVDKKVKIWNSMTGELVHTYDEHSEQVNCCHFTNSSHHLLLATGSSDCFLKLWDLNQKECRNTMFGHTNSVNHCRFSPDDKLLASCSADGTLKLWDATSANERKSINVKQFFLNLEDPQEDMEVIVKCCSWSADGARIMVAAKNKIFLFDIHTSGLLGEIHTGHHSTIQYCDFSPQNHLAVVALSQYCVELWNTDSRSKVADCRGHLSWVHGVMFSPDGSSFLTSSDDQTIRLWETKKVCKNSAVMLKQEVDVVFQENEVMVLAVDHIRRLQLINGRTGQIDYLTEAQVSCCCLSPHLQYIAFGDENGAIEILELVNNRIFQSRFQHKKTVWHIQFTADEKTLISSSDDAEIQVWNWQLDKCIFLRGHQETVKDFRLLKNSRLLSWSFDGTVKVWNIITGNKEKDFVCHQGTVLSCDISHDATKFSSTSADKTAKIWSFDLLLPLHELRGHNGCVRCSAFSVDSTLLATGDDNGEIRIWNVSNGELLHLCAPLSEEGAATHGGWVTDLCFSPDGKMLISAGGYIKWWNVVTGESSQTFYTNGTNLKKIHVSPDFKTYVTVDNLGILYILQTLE

Genome polyprotein = Genome polyprotein (dengue virus type 2, UniProt P29990); assay: flavivirus cap methylation enzyme inhibition – biochemical, confirmation dose response, primary screen (AID 588689); format: functional
[7] = loss of HEK293T viability via ATP – cell-based, plate reader, dry powder, set 10, cytotoxicity control, dose response (AID 743315); format: functional; settings: HEK293
[8] = viability loss in Vero cells – cytotoxicity control for Vif-APOBEC3G degradation inhibitor project, dose response (AID 1117358); format: functional; settings: Vero
[9] = IC50 of insulin release inhibition, rat insulinoma INS-1E line, 5 mM glucose, cell-based (AID 1117331); format: functional
[10] = target: T4, Low molecular weight phosphotyrosine protein phosphatase (Homo sapiens, UniProt P24666); assay: inhibition of LMPTP-A enzymatic activity – biochemical, OMFP substrate, fluorescence intensity, set 2, dose response (AID 743307); format: functional
T4 sequence (P24666 whole entry): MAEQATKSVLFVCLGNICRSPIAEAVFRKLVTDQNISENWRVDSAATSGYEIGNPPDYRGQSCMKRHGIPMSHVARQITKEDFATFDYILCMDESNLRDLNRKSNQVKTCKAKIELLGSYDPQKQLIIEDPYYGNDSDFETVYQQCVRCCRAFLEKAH

[11] = target: T4, Low molecular weight phosphotyrosine protein phosphatase; assay: inhibition of human LMPTP enzyme activity – biochemical, absorbance, pNPP substrate, LMPTP-A isoform, set 2, orthogonal assay, dose response (AID 743308); format: functional
[12] = viability inhibitors of stage V gametocytes – luminescence, dose response (AID 1117278); format: functional, cell-based;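 note: gametocytes exposed to compound for 24 hours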
[13] = viability loss in human Jurkat cells – cell-based, luminescence, cytotoxicity control for P. falciparum gametocyte viability project, dose response (AID 1117277); format: functional;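 note: potency reflects loss of cellular ATP meaning fewer viable cells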
[14] = rise of 2N DNA cells, HeLa – IC50, dose response (AID 1117349); format: functional, cell-based
[15] = NIH-3T3 fibroblast cytotoxicity, dose response, cytotoxicity control, cell-based, fluorescence, Alamar Blue, secondary assay (AID 2327); format: functional;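 note: NIH-3T3 mouse fibroblasts cultured with fluconazole at 8 µg/mL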
cells [16] = format: functional, cell-based
[17] = fluconazole-exposed Candida albicans growth modulators – fluorescence, retest, confirmation (AID 2467); format: functional, cell-based
[18] = target: ATP-dependent molecular chaperone HSP82 (Candida albicans (strain WO-1) (Yeast), UniProt C4YTQ8); assay: steroid-induced GRE reporter decrease in yeast – S. cerevisiae, luminescence, Hsp90 inhibitor project, dose response (AID 2400); format: functional, cell-based;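 note: beta-galactosidase luminescence from glucocorticoid response element reporter as proxy for Hsp90 function; inhibitor potency where signal loss means Hsp90 inhibition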
[19] = target: Serine/threonine-protein phosphatase (Candida dubliniensis (strain CD36 / CBS 7987 / NCPF 3949 / NRRLY-17841) (Yeast), UniProt B9W6M3); assay: blockers of CaCl2-induced CDRE-lacZ signaling – S. cerevisiae, luminescence, secondary, dose response (AID 2388); format: functional, cell-based;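 note: yeast reporter cells carrying a calcineurin-responsive lacZ construct stimulated with calcium chloride; luminescent beta-galactosidase reporter signal in whole cells rather than isolated phosphatase activity; potency for inhibition where a drop in reporter signal means calcineurin blockade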
[20] = rise of 4N DNA cells, HeLa – IC50, dose response (AID 1117351); format: functional, cell-based
cells [21] = format: functional, cell-based; remark: listed apart in the source

Sequence of Glutathione-S-transferase (Q26513 whole entry): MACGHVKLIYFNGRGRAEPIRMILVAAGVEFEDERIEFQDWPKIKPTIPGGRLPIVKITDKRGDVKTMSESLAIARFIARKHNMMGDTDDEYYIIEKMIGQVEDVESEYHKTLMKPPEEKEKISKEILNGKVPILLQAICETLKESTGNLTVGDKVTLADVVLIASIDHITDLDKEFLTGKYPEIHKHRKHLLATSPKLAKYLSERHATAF
Sequence of Serine/threonine-protein phosphatase (B9W6M3 whole entry): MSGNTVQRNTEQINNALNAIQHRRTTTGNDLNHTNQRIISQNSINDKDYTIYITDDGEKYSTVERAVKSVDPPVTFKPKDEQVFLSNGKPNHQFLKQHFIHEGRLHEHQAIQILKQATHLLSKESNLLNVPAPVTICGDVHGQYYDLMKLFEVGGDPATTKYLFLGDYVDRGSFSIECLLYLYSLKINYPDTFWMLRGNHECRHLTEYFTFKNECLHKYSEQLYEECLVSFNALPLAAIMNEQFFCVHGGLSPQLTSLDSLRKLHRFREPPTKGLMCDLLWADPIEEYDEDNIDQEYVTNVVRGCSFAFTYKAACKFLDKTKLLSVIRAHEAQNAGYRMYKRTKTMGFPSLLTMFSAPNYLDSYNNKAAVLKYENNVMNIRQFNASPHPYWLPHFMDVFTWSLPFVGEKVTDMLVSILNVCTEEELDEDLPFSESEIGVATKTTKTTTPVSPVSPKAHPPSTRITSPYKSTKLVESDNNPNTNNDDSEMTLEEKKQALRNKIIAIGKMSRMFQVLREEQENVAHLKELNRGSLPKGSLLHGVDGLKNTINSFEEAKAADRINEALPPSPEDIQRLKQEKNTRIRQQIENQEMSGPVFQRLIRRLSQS
Sequence of ATP-dependent molecular chaperone HSP82 (C4YTQ8 whole entry): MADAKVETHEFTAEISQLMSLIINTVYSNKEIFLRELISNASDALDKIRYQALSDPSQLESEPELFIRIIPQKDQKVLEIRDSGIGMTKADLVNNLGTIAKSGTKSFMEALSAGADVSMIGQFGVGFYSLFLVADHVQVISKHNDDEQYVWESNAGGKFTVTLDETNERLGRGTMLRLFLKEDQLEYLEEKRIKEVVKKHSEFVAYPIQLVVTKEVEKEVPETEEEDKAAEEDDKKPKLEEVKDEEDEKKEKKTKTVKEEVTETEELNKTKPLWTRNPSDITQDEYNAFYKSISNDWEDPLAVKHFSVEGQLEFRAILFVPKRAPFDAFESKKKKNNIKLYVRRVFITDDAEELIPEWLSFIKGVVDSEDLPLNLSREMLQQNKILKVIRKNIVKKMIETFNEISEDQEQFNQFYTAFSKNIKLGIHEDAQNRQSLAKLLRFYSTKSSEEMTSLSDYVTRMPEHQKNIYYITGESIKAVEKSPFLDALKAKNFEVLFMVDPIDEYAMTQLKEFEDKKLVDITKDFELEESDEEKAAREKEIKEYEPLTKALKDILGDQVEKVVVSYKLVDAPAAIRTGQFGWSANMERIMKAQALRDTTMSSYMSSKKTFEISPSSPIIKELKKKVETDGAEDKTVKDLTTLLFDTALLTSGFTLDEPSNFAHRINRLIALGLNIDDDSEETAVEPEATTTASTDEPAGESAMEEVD
Sequence of Genome polyprotein (P29990 2492-3391 limits assumed): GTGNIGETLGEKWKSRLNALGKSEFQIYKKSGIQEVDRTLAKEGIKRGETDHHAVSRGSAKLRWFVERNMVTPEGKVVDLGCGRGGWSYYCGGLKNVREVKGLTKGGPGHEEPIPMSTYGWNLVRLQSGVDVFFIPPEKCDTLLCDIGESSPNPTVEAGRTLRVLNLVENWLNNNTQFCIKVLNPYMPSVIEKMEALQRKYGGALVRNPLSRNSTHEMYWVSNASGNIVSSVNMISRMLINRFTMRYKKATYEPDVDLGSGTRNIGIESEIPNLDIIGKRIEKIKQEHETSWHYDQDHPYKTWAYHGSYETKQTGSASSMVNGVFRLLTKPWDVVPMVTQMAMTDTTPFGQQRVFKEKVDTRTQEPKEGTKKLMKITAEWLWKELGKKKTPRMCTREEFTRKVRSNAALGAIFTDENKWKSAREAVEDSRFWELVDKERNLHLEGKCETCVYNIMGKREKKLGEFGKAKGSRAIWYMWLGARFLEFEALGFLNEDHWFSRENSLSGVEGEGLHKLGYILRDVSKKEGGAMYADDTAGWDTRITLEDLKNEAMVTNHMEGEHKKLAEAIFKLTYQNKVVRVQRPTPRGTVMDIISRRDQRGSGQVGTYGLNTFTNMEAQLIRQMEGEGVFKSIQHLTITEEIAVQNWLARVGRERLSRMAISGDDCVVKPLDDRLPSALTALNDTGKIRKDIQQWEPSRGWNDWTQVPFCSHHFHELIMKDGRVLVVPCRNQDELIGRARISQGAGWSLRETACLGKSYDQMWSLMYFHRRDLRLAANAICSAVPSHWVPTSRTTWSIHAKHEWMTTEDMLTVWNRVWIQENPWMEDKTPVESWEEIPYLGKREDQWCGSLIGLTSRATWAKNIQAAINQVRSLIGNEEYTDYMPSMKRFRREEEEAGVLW

## C[C@H]1CN([C@@H](C)CO)S(=O)(=O)c2ccc(C#CC(C)(C)O)cc2O[C@H]1CN(C)Cc1ccc(-c2ccccc2)cc1
[1]
  AC50: > 60 µM (inactive)
[2]
  AC50: 20.4 µM (active)

## COC(=O)CCC(=O)OC1(C)C(=O)C2=CN(CCCOC(C)C)C(c3ccc(OC)cc3)=CC2=C(Br)C1=O (configuration not stated)
[3]
  IC50: > 100 µM (active)
[4]
  EC50: 42 µM (active)
[5]
  EC50: 46.9 µM (active)
[6]
  IC50: 15.4 µM (active)
Genome polyprotein
  IC50: 19.8 µM (active)

## CC(C)c1ccc(OCCn2c(=S)[nH]c3ccccc32)cc1
[7]
  AC50: 27.3 µM (active)

## Oc1ccccc1-c1cc(C(F)(F)C(F)F)[nH]n1
[8]
  CC50: > 40 µM (active)

## CN1CCC(N(Cc2cccs2)c2ccccc2)CC1 [THENALIDINE]
[9]
  IC50: 20.4 µM (inactive)

## c1ccc(-c2nc(NCCN3CCCC3)c3ccccc3n2)cc1
[10]
  IC50: > 80 µM (inactive)
[11]
  IC50: > 80 µM (inactive)

## CCOC(=O)c1c(N)c2cc([N+](=O)[O-])cnc2n1C
[12]
  IC50: > 109 µM (inactive)
[13]
  IC50: > 83.4 µM (inactive)

## CC(=O)N(O)CCCCCNC(=O)CCC(=O)N(O)CCCCCNC(=O)CCC(=O)N(O)CCCCCN [DEFEROXAMINE MESYLATE]
[14]
  IC50: > 10 µM (inactive)
[15]
  EC50: > 150 µM (inactive)
Cells [16]
  EC50: 225 µM (active)
[17]
  EC50: 0.578 µM (active)
[18]
  EC50: > 150 µM (inactive)
[19]
  EC50: > 180 µM (inactive)
[20]
  IC50: > 10 µM (inactive)
Cells [21]
  EC50: > 350 µM (not active)
